Measurements as given in PubChem BioAssay (NCI).
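Cells were grown in 96-well plates and exposed to each compound for 48 hours at five concentrations; endpoints were interpolated linearly between bracketing concentrations, or set to the highest concentration if not reached. GI50 = concentration required for 50% inhibition of growth. TGI denotes the concentration required for complete inhibition of growth.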

How the values were obtained:
Experiment in all cases: inhibition of tumour cell growth, NCI panel, 48 h
HOP-92 NSCLC = tested on: HOP-92 NSCLC
IGROV1 ovarian = tested on: IGROV1 ovarian
T-47D breast = tested on: T-47D breast
HCC-2998 colon = tested on: HCC-2998 colon
MCF7 breast = tested on: MCF7 breast
COLO 205 colon = tested on: COLO 205 colon
EKVX NSCLC = tested on: EKVX NSCLC
BT-549 breast = tested on: BT-549 breast
A498 renal = tested on: A498 renal
NCI-H460 lung = tested on: NCI-H460 lung
CCRF-CEM leukemia = tested on: CCRF-CEM leukemia
SN12C renal = tested on: SN12C renal
SF-295 CNS = tested on: SF-295 CNS
SF-539 CNS = tested on: SF-539 CNS
MDA-MB-435 = tested on: MDA-MB-435
NCI/ADR-RES ovarian = tested on: NCI/ADR-RES ovarian
HCT-15 colon = tested on: HCT-15 colon
HS 578T breast = tested on: HS 578T breast
RPMI-8226 leukemia = tested on: RPMI-8226 leukemia
HOP-62 NSCLC = tested on: HOP-62 NSCLC
SK-MEL-2 melanoma = tested on: SK-MEL-2 melanoma
KM12 colon = tested on: KM12 colon
UACC-257 melanoma = tested on: UACC-257 melanoma
NCI-H522 lung = tested on: NCI-H522 lung
MDA-MB-231 breast = tested on: MDA-MB-231 breast
CAKI-1 renal = tested on: CAKI-1 renal
OVCAR-4 ovarian = tested on: OVCAR-4 ovarian
HT29 colon = tested on: HT29 colon
MOLT-4 leukemia = tested on: MOLT-4 leukemia
K-562 leukemia = tested on: K-562 leukemia
HCT-116 colon = tested on: HCT-116 colon
SNB-75 CNS = tested on: SNB-75 CNS
ACHN renal = tested on: ACHN renal
DU-145 prostate = tested on: DU-145 prostate
LOX IMVI melanoma = tested on: LOX IMVI melanoma
SK-MEL-5 melanoma = tested on: SK-MEL-5 melanoma
SF-268 CNS = tested on: SF-268 CNS
SK-OV-3 ovarian = tested on: SK-OV-3 ovarian
TK-10 renal = tested on: TK-10 renal
UACC-62 melanoma = tested on: UACC-62 melanoma
RXF 393 renal = tested on: RXF 393 renal
OVCAR-3 ovarian = tested on: OVCAR-3 ovarian
OVCAR-8 ovarian = tested on: OVCAR-8 ovarian
MALME-3M melanoma = tested on: MALME-3M melanoma
SK-MEL-28 melanoma = tested on: SK-MEL-28 melanoma
SNB-19 CNS = tested on: SNB-19 CNS
U251 CNS = tested on: U251 CNS
OVCAR-5 ovarian = tested on: OVCAR-5 ovarian
UO-31 renal = tested on: UO-31 renal
HL-60(TB) leukemia = tested on: HL-60(TB) leukemia
A549 NSCLC = tested on: A549 NSCLC
M14 melanoma = tested on: M14 melanoma
NCI-H226 lung = tested on: NCI-H226 lung
PC-3 prostate = tested on: PC-3 prostate
SW-620 colon = tested on: SW-620 colon
786-0 renal = tested on: 786-0 renal
SR leukemia = tested on: SR leukemia

CCNC(=O)N1CCc2cc(OC)c(OCCc3ccc(OC)nc3)cc2C1c1ccc(C)cc1C (centres undefined)
GI50 (HOP-92 NSCLC): 4.52 µM | TGI (HOP-92 NSCLC): 27.4 µM | GI50 (IGROV1 ovarian): 0.743 µM | TGI (IGROV1 ovarian): > 100 µM | GI50 (T-47D breast): 2.68 µM | TGI (T-47D breast): 64.5 µM | GI50 (HCC-2998 colon): 1.56 µM | TGI (HCC-2998 colon): 17.8 µM | GI50 (MCF7 breast): 0.443 µM | TGI (MCF7 breast): > 100 µM | GI50 (COLO 205 colon): 0.792 µM | TGI (COLO 205 colon): 4.17 µM | GI50 (EKVX NSCLC): 4.03 µM | TGI (EKVX NSCLC): > 100 µM | GI50 (BT-549 breast): 1.55 µM | TGI (BT-549 breast): 7.45 µM | GI50 (A498 renal): 1.39 µM | TGI (A498 renal): 14.3 µM | GI50 (NCI-H460 lung): 0.241 µM | TGI (NCI-H460 lung): 6.36 µM | GI50 (CCRF-CEM leukemia): 0.519 µM | TGI (CCRF-CEM leukemia): 55 µM | GI50 (SN12C renal): 1.1 µM | TGI (SN12C renal): 15.4 µM | GI50 (SF-295 CNS): 0.574 µM | TGI (SF-295 CNS): 8.8 µM | GI50 (SF-539 CNS): 0.501 µM | TGI (SF-539 CNS): 5.23 µM | GI50 (MDA-MB-435): 0.37 µM | TGI (MDA-MB-435): 5.89 µM | GI50 (NCI/ADR-RES ovarian): 0.659 µM | TGI (NCI/ADR-RES ovarian): 38.8 µM | GI50 (HCT-15 colon): 0.156 µM | TGI (HCT-15 colon): > 60.2 µM | GI50 (HS 578T breast): 1.53 µM | TGI (HS 578T breast): 10.6 µM | GI50 (RPMI-8226 leukemia): 0.531 µM | TGI (RPMI-8226 leukemia): 3.58 µM | GI50 (HOP-62 NSCLC): 1.35 µM | TGI (HOP-62 NSCLC): > 37.5 µM | GI50 (SK-MEL-2 melanoma): 3.33 µM | TGI (SK-MEL-2 melanoma): 16.4 µM | GI50 (KM12 colon): 0.634 µM | TGI (KM12 colon): > 40.4 µM | GI50 (UACC-257 melanoma): 2.29 µM | TGI (UACC-257 melanoma): 50.5 µM | GI50 (NCI-H522 lung): 0.523 µM | TGI (NCI-H522 lung): 2.72 µM | GI50 (MDA-MB-231 breast): 1.14 µM | TGI (MDA-MB-231 breast): 30.2 µM | GI50 (CAKI-1 renal): 0.611 µM | TGI (CAKI-1 renal): > 100 µM | GI50 (OVCAR-4 ovarian): 3.3 µM | TGI (OVCAR-4 ovarian): > 100 µM | GI50 (HT29 colon): 0.573 µM | TGI (HT29 colon): 10.5 µM | GI50 (MOLT-4 leukemia): 0.416 µM | TGI (MOLT-4 leukemia): 35.5 µM | GI50 (K-562 leukemia): 0.259 µM | TGI (K-562 leukemia): > 100 µM | GI50 (HCT-116 colon): 0.299 µM | TGI (HCT-116 colon): 20.7 µM | GI50 (SNB-75 CNS): 0.667 µM | TGI (SNB-75 CNS): > 23.5 µM | GI50 (ACHN renal): 0.662 µM | TGI (ACHN renal): 91.1 µM | GI50 (DU-145 prostate): 0.858 µM | TGI (DU-145 prostate): 24 µM | GI50 (LOX IMVI melanoma): 0.308 µM | TGI (LOX IMVI melanoma): 5.41 µM | GI50 (SK-MEL-5 melanoma): 0.839 µM | TGI (SK-MEL-5 melanoma): 2.71 µM | GI50 (SF-268 CNS): 0.927 µM | TGI (SF-268 CNS): 50.1 µM | GI50 (SK-OV-3 ovarian): 2.67 µM | TGI (SK-OV-3 ovarian): > 100 µM | GI50 (TK-10 renal): 5 µM | TGI (TK-10 renal): > 100 µM | GI50 (UACC-62 melanoma): 0.43 µM | TGI (UACC-62 melanoma): 12.2 µM | GI50 (RXF 393 renal): 1.07 µM | TGI (RXF 393 renal): 15 µM | GI50 (OVCAR-3 ovarian): 1.34 µM | TGI (OVCAR-3 ovarian): 24.3 µM | GI50 (OVCAR-8 ovarian): 0.675 µM | TGI (OVCAR-8 ovarian): > 43.1 µM | GI50 (MALME-3M melanoma): 1.35 µM | TGI (MALME-3M melanoma): 50.2 µM | GI50 (SK-MEL-28 melanoma): 0.873 µM | TGI (SK-MEL-28 melanoma): 32.1 µM | GI50 (SNB-19 CNS): 0.837 µM | TGI (SNB-19 CNS): > 100 µM | GI50 (U251 CNS): 0.636 µM | TGI (U251 CNS): 17.5 µM | GI50 (OVCAR-5 ovarian): 2.02 µM | TGI (OVCAR-5 ovarian): > 100 µM | GI50 (UO-31 renal): 0.929 µM | TGI (UO-31 renal): > 100 µM | GI50 (HL-60(TB) leukemia): 0.651 µM | TGI (HL-60(TB) leukemia): 3.82 µM | GI50 (A549 NSCLC): 0.984 µM | TGI (A549 NSCLC): > 100 µM | GI50 (M14 melanoma): 0.722 µM | TGI (M14 melanoma): 19.3 µM | GI50 (NCI-H226 lung): 1.73 µM | TGI (NCI-H226 lung): 11.4 µM | GI50 (PC-3 prostate): 0.719 µM | TGI (PC-3 prostate): > 71.8 µM | GI50 (SW-620 colon): 0.466 µM | TGI (SW-620 colon): > 100 µM | GI50 (786-0 renal): 0.687 µM | TGI (786-0 renal): > 100 µM | GI50 (SR leukemia): 0.207 µM | TGI (SR leukemia): 2.96 µM
